Molecular target: T1, MAGL (Homo sapiens, UniProt Q99685)
T1 sequence (Q99685 1-303): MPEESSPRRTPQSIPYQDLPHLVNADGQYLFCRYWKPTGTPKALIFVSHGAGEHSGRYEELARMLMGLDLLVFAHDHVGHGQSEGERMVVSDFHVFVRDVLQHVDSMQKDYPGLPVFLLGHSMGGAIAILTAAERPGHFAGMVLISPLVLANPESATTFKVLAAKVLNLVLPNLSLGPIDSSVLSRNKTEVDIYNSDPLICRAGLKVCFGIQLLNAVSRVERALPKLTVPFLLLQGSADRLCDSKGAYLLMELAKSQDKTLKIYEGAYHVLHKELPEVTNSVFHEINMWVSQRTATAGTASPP
Experiment: 2-AG assay: MAGL inhibitory activity by hydrolysis of 2-arachidonoylglycerol to arachidonic acid, followed by mass spectrometry
Type: biochemical
Conditions: 15 min preincubation, 30 min reaction at RT, 8 μM 2-arachidonoylglycerol

| IC50 [nM] | Compound |
| --- | --- |
| 1.51 | NC(=O)c1cc(CC2CC3(C2)CN(C(=O)N2CC4(COC(=O)N4)C2)C3)ccc1OC(F)(F)F [Example 245, 5-[[2-(6-oxo-7-oxa-2,5-diazaspiro[3.4]octane-2-carbonyl)-2-azaspiro[3.3]heptan-6-yl]methyl]-2-(trifluoromethoxy)benz-amide] |
| 266 | O=C1CCC2(CN(C(=O)N3CC4(C3)CN(S(=O)(=O)c3ccc(OC(F)(F)F)cc3)C4)C2)N1 [Example 199, 2-[2-[4-(trifluoromethoxy)phenyl]sulfonyl-2,6-diazaspiro[3.3]heptane-6-carbonyl]-2,5-diazaspiro[3.4]octan-6-one] |
| 0.1 | N#Cc1ccc(CC2CC3(C2)CN(C(=O)N2CC4(COC(=O)N4)C2)C3)cc1C(F)(F)F [Example 353] |
| 33.9 | O=C1NC2(CO1)CN(C(=O)N1CC3(CCN(Cc4ccc(C(F)(F)F)nn4)C3)C1)C2 [Example 158, 2-[7-[[6-(trifluoromethyl)pyrida-zin-3-yl]methyl]-2,7-diazaspiro[3.4]octane-2-carbonyl]-7-oxa-2,5-diazaspiro[3.4]octan-6-one] |
| 10.4 | O=C1NC2(CO1)CN(C(=O)N1CC3(C1)CN(S(=O)(=O)c1ccccc1OC(F)(F)F)C3)C2 [Example 190, 2-[2-[2-(trifluoromethoxy)phenyl]sulfonyl-2,6-diazaspiro[3.3]heptane-6-carbonyl]-7-oxa-2,5-diazaspiro[3.4]octan-6-one] |
| 165 | CNC(=O)c1ccccc1CN1CC2(C1)CN(C(=O)N1CC3(COC(=O)N3)C1)C2 [Example 201, N-methyl-2-[[2-(6-oxo-7-oxa-2,5-diazaspiro[3.4]octane-2-carbonyl)-2,6-diazaspiro[3.3]heptan-6-yl]methyl]benzamide] |
| 4.11 | O=C1NC2(CO1)CN(C(=O)N1CC3(CCN(Cc4ccc(C(F)(F)F)cn4)C3)C1)C2 [Example 154, 2-[7-[[5-(trifluoromethyl)-2-pyridyl]methyl]-2,7-diazaspiro[3.4]octane-2-carbonyl]-7-oxa-2,5-diazaspiro[3.4]octan-6-one] |
| 0.31 | O=C1NC2(CO1)CN(C(=O)N1CC3(CC(Cc4ccc(Cl)cn4)C3)C1)C2 [Example 20, 2-[6-[(5-chloro-2-pyridyl)methyl]-2-azaspiro[3.3]heptane-2-carbonyl]-7-oxa-2,5-diazaspiro[3.4]octan-6-one] |
| 0.19 | O=C1NC2(CO1)CN(C(=O)N1CC3(CC(Cc4ccc(OC(F)(F)F)nc4)C3)C1)C2 [Example 355, 2-[6-[[6-(trifluoromethoxy)-3-pyridyl]methyl]-2-azaspiro[3.3]heptane-2-carbonyl]-7-oxa-2,5-diazaspiro[3.4]octan-6-one] |
| 38.8 | O=C1NC2(CO1)CN(C(=O)N1CC3(C1)CN(S(=O)(=O)c1cncc(C(F)(F)F)c1)C3)C2 [Example 196, 2-[2-[[5-(trifluoromethyl)-3-pyridyl]sulfonyl]-2,6-diazaspiro[3.3]heptane-6-carbonyl]-7-oxa-2,5-diazaspiro[3.4]octan-6-one] |
| 0.35 | O=C1CCC2(CN(C(=O)N3CC4(CC(Cc5ncc(C(F)(F)F)cc5F)C4)C3)C2)N1 [Example 7, 2-[6-[[3-fluoro-5-(trifluoromethyl)-2-pyridyl]methyl]-2-azaspiro[3.3]heptane-2-carbonyl]-2,5-diazaspiro[3.4]octan-6-one] |

Further lines, the compound ahead of its results:

| Compound | IC50 [nM] |
| --- | --- |
| O=C1CCCC2(CN(C(=O)N3CC4(CC(Cc5cc(C(F)(F)F)n[nH]5)C4)C3)C2)N1 [Example 278, 2-[6-[[3-(trifluoromethyl)-1H-pyrazol-5-y1]methyl]-2-azaspiro[3.3]heptane-2-carbonyl]-2,5-diazaspiro[3.5]nonan-6-one] | 479 |
| O=C1CCC2(CN(C(=O)N3CC4(CCN(Cc5cc(C(F)(F)F)sn5)CC4)C3)C2)N1 [Example 332, 2-[7-[[5-(trifluoromethyl)isothia-zol-3-yl]methyl]-2,7-diazaspiro[3.5]nonane-2-carbonyl]-2,5-diazaspiro[3.4]octan-6-one] | 52.7 |
| O=C1CCCC2(CN(C(=O)N3CC4(CC(Cc5cc(C(F)F)n[nH]5)C4)C3)C2)N1 [Example 279, 2-[6-[[3-(difluoromethyl)-1H-pyrazol-5-yl]methyl]-2-azaspiro[3.3]heptane-2-carbonyl]-2,5-diazaspiro[3.5]nonan-6-one] | 1030 |
| O=C1CCC2(CN(C(=O)N3CC4(CC(Cc5nc(C(F)(F)F)co5)C4)C3)C2)N1 [Example 58, 2-[6-[[4-(trifluoromethyl)oxazol-2-yl]methyl]-2-azaspiro[3.3]heptane-2-carbonyl]-2,5-diazaspiro[3.4]octan-6-one] | 17.3 |
| O=C1NCC2(CN(C(=O)N3CCC4(CC3)CN(Cc3ccc(C(F)(F)F)cc3F)C4)C2)N1 [Example 93, 2-[2-[2-fluoro-4-(trifluoromethyl)benzyl]-2,7-diazaspiro[3.5]nonane-7-carbonyl]-2,5,7-triazaspiro[3.4]octan-6-one] | 142 |
| O=C1CCC2(CN(C(=O)N3CC4(CC(Cc5ccnc(C(F)(F)F)n5)C4)C3)C2)N1 [Example 314, 2-[6-[[2-(trifluoromethyl)pyrimi-din-4-yl]methyl]-2-azaspiro[3.3]heptane-2-carbonyl]-2,5-diazaspiro[3.4]octan-6-one] | 8.62 |
| N#Cc1cc(CC2CC3(C2)CN(C(=O)N2CC4(CCC(=O)N4)C2)C3)ccc1C(F)(F)F [Example 16, 5-[[2-(6-keto-2,5-diazaspiro[3.4]octane-2-carbonyl)-2-azaspiro[3.3]heptan-6-yl]methyl]-2-(trifluoromethyl)benzoni-trile] | 0.09 |
| O=C1CCC2(CN(C(=O)N3CC4(CCN(Cc5ccc(C(F)(F)F)nn5)C4)C3)C2)N1 [Example 317, 2-[7-[[6-(trifluoromethyl)pyrida-zin-3-yl]methyl]-2,7-diazaspiro[3.4]octane-2-carbonyl]-2,5-diazaspiro[3.4]octan-6-one] | 1040 |
| CS(=O)(=O)c1cc(F)cc(CC2CC3(C2)CN(C(=O)N2CC4(CCC(=O)N4)C2)C3)c1 [Example 10, 2-[6-(3-fluoro-5-mesyl-benzyl)-2-azaspiro[3.3]heptane-2-carbonyl]-2,5-diazaspiro[3.4]octan-6-one] | 24.5 |
| O=C1CCC2(CN(C(=O)N3CC4(CC(Cc5nccc(C(F)(F)F)n5)C4)C3)C2)N1 [Example 327, 2-[6-[[4-(trifluoromethyl)pyrimi-din-2-yl]methyl]-2-azaspiro[3.3]heptane-2-carbonyl]-2,5-diazaspiro[3.4]octan-6-one] | 7.57 |
| O=C1NCC2(CN(C(=O)N3CC4(CC(Cc5ccc(F)cc5C(F)(F)F)C4)C3)C2)N1 [Example 34, 2-[6-[4-fluoro-2-(trifluoromethyl)benzyl]-2-azaspiro[3.3]heptane-2-carbonyl]-2,5,7-triazaspiro[3.4]octan-6-one] | 1.09 |
| O=C1CCC2(CN(C(=O)N3CC4(CCC(Cc5ccc(Cl)cn5)CC4)C3)C2)N1 [Example 120, 2-[7-[(5-chloro-2-pyridyl)methyl]-2-azaspiro[3.5]nonane-2-carbonyl]-2,5-diazaspiro[3.4]octan-6-one] | 2.95 |
| O=C1NCC2(CN(C(=O)N3CC4(CC(Cc5ccc(C(F)(F)F)nc5)C4)C3)C2)N1 [Example 42, 2-[6-[[6-(trifluoromethyl)-3-pyridyl]methyl]-2-azaspiro[3.3]heptane-2-carbonyl]-2,5,7-triazaspiro[3.4]octan-6-one] | 53.4 |

— US20240383904A1, “HETEROCYCLIC COMPOUNDS” (Hoffmann-La Roche Inc., priority 2021, published 2024)
